Laboratory results taken from PubChem BioAssay AID179 (DTP/NCI, 2004).
The source made the active and inactive calls.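 How the source made its calls: active means compounds giving half or more protection of infected cells from virus-caused growth loss, again on retest; inactive means the rest.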

Test system: CEM cells HIV-1 protection, formazan growth assay
Assay: NCI AIDS Antiviral Assay
Conditions: for IC50: measured here: growth of uninfected CEM cells
In short: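 Protection of CEM cells against HIV-1 was scored from cell growth (soluble formazan) across five concentrations, with parallel uninfected cells. Lack of protection may reflect toxicity.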

| SMILES | EC50 [µM] | IC50 [µM] | outcome |
| --- | --- | --- | --- |
| CCOC(=O)C1SC(=Nc2ccc(Cl)c(Cl)c2)N=C1C (centres undefined) | > 11.5 | > 11.5 | – |
| O=C(O)C(F)(OC(F)(F)C(F)(OC(F)(F)C(F)(F)C(F)(F)F)C(F)(F)F)C(F)(F)F (centres undefined) | > 200 | > 200 | – |
| CC1CC(Nc2ccc(NC3=CC(=O)OC(C)C3)cc2)=CC(=O)O1 (centres undefined) | > 200 | > 200 | – |
| C[Si](C)(C)C1=C2C(=O)c3ccccc3C(=O)C2=C([Si](C)(C)C)[C@@H]2CCCC[C@H]12 | > 50.1 | > 50.1 | – |
| COc1cc(/C=C(\NC(=O)c2ccccc2)c2nc3ccc4c(c3[nH]2)C(=O)c2ccccc2C4=O)cc(OC)c1OC | – | – | inactive |
| CCOC(=O)C(C)(C)Oc1ccc2c(=O)cc(-c3ccccc3)oc2c1 | > 53.7 | 36.3 | – |
| CCOc1ccccc1NC(=O)C(=O)Cc1nc2ccccc2s1 | – | – | inactive |
| Cc1ccnn1CCc1ccc(Cl)cc1Cl | > 200 | 95.5 | – |
| Cn1c2ccccc2c(=NNc2cccc(C(=O)O)c2)c2ccccc21 | > 200 | 3.8 | – |
| O=C(O)c1cc(O)c2ccc(N=Nc3ccc(/C=C/c4ccc(N=Nc5ccc6c(O)cc(C(=O)O)nc6c5O)cc4S(=O)(=O)O)c(S(=O)(=O)O)c3)c(O)c2n1 | 10.2 | 50.1 | – |
| O=c1oc2ccccc2c2c1SC(c1ccncc1)C2 (centres undefined) | > 200 | > 200 | – |
| C=CCCC(CCC=C)(C(=O)O)C(=O)O | > 1170 | > 1170 | – |
| C=C[C@@H]1c2ccccc2C=C[C@]1(CCC1(C)OCCO1)C1=NC(C)(C)CO1 | > 70.8 | > 70.8 | – |
| C=[N+](CNC(=O)CNC(=O)C(Cc1ccc([N+](=O)[O-])cc1)NC(=O)OC(C)(C)C)C(=O)CNC(=O)C(Cc1ccc([N+](=O)[O-])cc1)NC(=O)OC(C)(C)C (centres undefined) | > 200 | 89.1 | – |
| CN(CC(O)C(O)CN(C)C(=S)S)C(=S)S (centres undefined) | > 661 | 170 | – |
| O=C(Nc1ccc(Br)cc1)C(=O)C(C(=O)c1ccc(Cl)c(Cl)c1)C1OC(=O)c2ccccc21 (centres undefined) | > 66.1 | 10 | – |
| O=C1OC(=O)N2CSCC12 (centres undefined) | > 1580 | > 1580 | – |
| Cc1c2cc(Br)ccc2nc(CCl)[n+]1[O-] | > 20 | 0.977 | – |
| CC12CC(=O)NC(=O)N1CCS2 (centres undefined) | 214 | 562 | – |
| Cc1c(-c2coc(-c3ccc([N+](=O)[O-])cc3)n2)c(=O)n(-c2ccccc2)n1C | > 36.3 | > 36.3 | – |
| COc1ccc(C2(OC)Oc3ccccc3C(=O)C2(O)OC)cc1OC (centres undefined) | > 200 | 11.5 | – |
| O=C(Nc1ccccc1)n1[nH]c(=O)n(-c2ccccc2)c1=O | > 200 | > 200 | – |

| SMILES | EC50 [µM] | IC50 [µM] | outcome |
| --- | --- | --- | --- |
| O=NN/C(=C1\Nc2ccc([N+](=O)[O-])cc2NC1=O)C(O)c1ccc([N+](=O)[O-])cc1 (centres undefined) | > 234 | 191 | – |
| CC1=C(C(=O)Nc2ccccc2)C(c2ccc(Cl)c(Cl)c2)C(C(=O)Nc2ccccc2)=C(C)N1 | > 10.7 | > 10.7 | – |
| C[Si](C)(C)/C=C/CCNC(C#N)c1ccccc1 (centres undefined) | > 20.4 | > 20.4 | – |
| COc1c(-c2ccccc2)nc2ccc(Oc3ccccc3)nn12 | > 56.2 | > 56.2 | – |
| CC1OC(OC2C(CO)OC(O[C@H]3CC[C@@]4(C)C(=CC[C@H]5[C@@H]6C[C@@H]7O[C@](O)(CC[C@H](C)COC8OC(CO)C(O)C(O)C8O)[C@@H](C)[C@@H]7[C@@]6(C)CC[C@@H]54)C3)C(OC3OC(C)C(O)C(O)C3O)C2O)C(O)C(O)C1O (some centres undefined) | > 200 | 1.48 | – |
| CCCCCCCC1(N=[N+]=[N-])C(=O)Nc2ccccc2C1=O (centres undefined) | > 200 | 20 | – |
| O=C1c2c(O)ccc(O)c2C(=O)c2c(NCCCCCO)ccc(NCCCCCO)c21 | – | – | inactive |
| O=C(CNC(=O)Nc1ccc(NC(=O)NCC(=O)Nc2ccc(C3=NCCN3)cc2)cc1)Nc1ccc(C2=NCCN2)cc1 | 81.3 | > 200 | – |
| C/C(=N/NC(=O)c1ccccc1S(N)(=O)=O)C(CN1CCCCC1)C(C1=C(O)C2C=CC=CC2OC1=O)c1ccccc1 (centres undefined) | > 21.4 | > 21.4 | – |
| CN(C)CC(CC1=C(CC(CN(C)C)N(C)C)CCC1)N(C)C (centres undefined) | – | – | inactive |
| O=C1Nc2cc3c(cc2C(=O)N2C/C(=N/O)CC12)OCO3 (centres undefined) | > 324 | 191 | – |
| CCCCC[C@@H]1CCCC2C1CCC(CCCCCO)N2C(=O)OCC(Cl)(Cl)Cl (some centres undefined) | – | – | inactive |
| O=C(O)CCCc1ccc2c(c1)CC1(C2)Cc2cc3c(cc2C1)CCCC3 | > 200 | 36.3 | – |
| S=C1N(/N=C/c2c3ccccc3cc3ccccc23)C(=Nc2ccccc2)C(=Nc2ccccc2)N1c1ccccc1 | > 200 | > 200 | – |
| O=C(O)c1ccccc1S(=O)O | > 200 | > 200 | – |
| O=C1CN2C(c3ccccc3)=NN(c3ccc([N+](=O)[O-])cc3)C2(c2ccccc2)c2cc(Cl)ccc2N1CC1CC1 (centres undefined) | > 100 | > 100 | – |
| O=C(CSc1nnc(Cc2ccccc2)o1)Nc1ccccc1 | > 209 | > 209 | – |
| COc1cccc(/C=C\C#N)c1 | > 316 | > 316 | – |
| N#Cc1ccc(-n2cccc2)cc1 | > 200 | > 200 | – |
| O=C1/C(=C/c2ccc([N+](=O)[O-])cc2)CCc2ccccc21 | > 7.24 | > 7.24 | – |
| O=C(NCCc1c(-c2ccccc2)[nH]c2ccccc12)C(F)(F)F | > 200 | 34.7 | – |
| O=C(O)c1ccc(-c2ccc(C(=C(F)F)C(F)(F)F)cc2)cc1 | – | – | inactive |

| SMILES | EC50 [µM] | IC50 [µM] | outcome |
| --- | --- | --- | --- |
| Cc1ccccc1N=Cc1ccc(N(CCC#N)S(=O)(=O)c2ccccc2)cc1 | > 617 | 479 | – |
| Nc1ccccc1C(=O)C(Br)C(Br)c1ccc2c(c1)OCO2 (centres undefined) | > 43.7 | 23.4 | – |
| Fc1ccccc1C1SCc2nc3ncccc3n21 (centres undefined) | > 95.5 | > 95.5 | – |
| Cc1cc(S(=O)(=O)N2CCNNC2=O)c(S)cc1Cl | 27.5 | 50.1 | – |
| Cn1c(COC(=O)NC2CCCCC2)c(COC(=O)NC2CCCCC2)c2ccc3ccccc3c21 | > 174 | 2.82 | – |
| Cc1[nH]nc(-c2ccon2)c1N=O | > 200 | 8.91 | – |
| Cc1cc(CC(O)c2ccc(Cl)c(Cl)c2)nc(=O)[nH]1 (centres undefined) | > 9.12 | > 9.12 | – |
| CN1C(=O)CC2(C)c3cc(C=O)ccc3N(C)C12 (centres undefined) | – | – | inactive |
| COc1ncc(C#CC(=O)c2ccccc2OC)c(OC)n1 | > 0.2 | 0.132 | – |
| CC1(C)OC(CCO)CN1C(=O)OCc1ccccc1 (centres undefined) | 195 | > 200 | – |
| CC(=NCCN(CCN=C(C)c1c(O)cc(C)oc1=O)CCN=C(C)c1c(O)cc(C)oc1=O)c1c(O)cc(C)oc1=O | > 200 | > 200 | – |
| Cc1cccc(-c2cccc(COCc3cccc(-c4cccc(CO)n4)n3)n2)n1 | > 100 | 43.7 | – |
| O=C1NC(=O)/C(=C\c2ccccc2)C2=C1CCCC2 | > 74.1 | 15.5 | – |
| COc1cc(Br)c(CC2NCCc3cc(OC)c(OC)cc32)cc1OC (centres undefined) | > 224 | > 224 | – |
| CC1C=C(Sc2ccccc2)C(=O)O1 (centres undefined) | > 468 | 25.1 | – |
| O=C(Cc1nc2ccc([N+](=O)[O-])cc2[nH]c1=O)C(=O)Nc1cc(Cl)c(Cl)cc1Cl | > 29.5 | 11.2 | – |
| CCCCCCn1c(SCC)c2ccccc2c1-c1nc(F)nc(F)n1 | > 2.75 | > 2.75 | – |
| Cc1cc(N=O)cc(Cl)c1O | > 200 | 10.5 | – |
| COc1nc2[nH]c(C)cc(=O)c2c2ccccc12 | > 200 | > 200 | – |
| CCC[CH2][Sn]([CH2]CCC)([S]C1=NCCS1)[S]C1=NCCS1 | > 39.8 | 0.759 | – |
| CC1=Nc2ccccc2NC(c2ccoc2)C1 (centres undefined) | > 22.9 | > 22.9 | – |
| Cc1cc(S(=O)(=O)Nc2n[nH]c(Nc3ccccc3)n2)c(S)cc1Cl | 170 | 275 | – |

| SMILES | EC50 [µM] | IC50 [µM] | outcome |
| --- | --- | --- | --- |
| CN1C(=O)C23SSC1(C)C(=O)N2c1ccccc1C3(C)C (centres undefined) | > 200 | 7.94 | – |
| NCCCCN(CCCN)/[N+]([O-])=N\O | > 7590 | 91.2 | – |
| Oc1ccc(O)c2c1N=NC21c2ccccc2Oc2ccccc21 | > 112 | 33.1 | – |
| O=C(O)c1cc(Nc2nc(Cl)nc(Cl)n2)ccc1-c1c2ccc(=O)cc-2oc2cc(O)ccc12 | 38 | 692 | – |
| CCCCC(=O)c1c(O)c2ccccc2oc1=O | > 200 | 29.5 | – |
| O=C(Cn1c(=O)oc2ccc(C(=O)c3ccc(F)cc3)cc21)c1ccccc1 | > 200 | 123 | – |
| Cc1cc2c(C(C)C)c(O)c(O)c(C=NCCc3ccccc3)c2c(O)c1-c1c(C)cc2c(C(C)C)c(O)c(O)c(C=NCCc3ccccc3)c2c1O | > 200 | 8.71 | – |
| CC(C)(C)OC(=O)NCC(CNC(=O)OC(C)(C)C)c1nc(C(N)=O)cs1 | > 200 | > 200 | – |
| COC(=O)C1(O)CC(=O)CCC1c1ccccc1 (centres undefined) | > 355 | > 355 | – |
| CCC1Sc2cc(OC)cc3[nH]c(=S)n(c23)C1=O (centres undefined) | 126 | 148 | – |
| Cc1ccc(S(=O)(=O)OCC2OC(OC3(CO)OC(COS(=O)(=O)c4ccc(C)cc4)C(O)C3O)C(O)C(O)C2O)cc1 (centres undefined) | > 200 | > 200 | – |
| O=C(Nc1cccc(NC(=O)C(=O)C2CCC3=C(Sc4ccccc4N3)C2=O)n1)C(=O)C1CCC2=C(Sc3ccccc3N2)C1=O (centres undefined) | > 75.9 | 63.1 | – |
| CC(=O)c1cc(N=Nc2ccc(/C=C/c3ccc(N=Nc4cc(O)c5ncccc5c4C(C)=O)cc3S(=O)(=O)O)c(S(=O)(=O)O)c2)c(O)c2ncccc12 | > 29.5 | 28.8 | – |
| Cc1oc2ccccc2c(=O)c1CN1CCN(c2ccccn2)CC1 | > 214 | 129 | – |
| O=c1[nH]c2nccn2c2c1SCCN2 | > 200 | > 200 | – |
| CNC=O | > 200 | > 200 | – |
| CCON1CC(C(=O)OC)=C(O)C1=O | > 200 | > 200 | – |
| Cc1[nH]c2ccccc2c1C1Cc2ccccc2N1 (centres undefined) | – | – | inactive |
| CCCCN(CCO)Cc1cc(Nc2c3ccccc3nc3ccccc23)ccc1O | > 63.1 | 20.4 | – |
| O=C(O)C12C3CCC(CC3)C1(C(=O)O)C1CCC2C1 (centres undefined) | > 200 | > 200 | – |
